Assay results taken from patent publication US20230183248A1, “PYRROLO[1,2-D][1,2,4]TRIAZINE-2-YL-ACETAMIDES AS INHIBITORS OF THE NLRP3 INFLAMMASOME PATHWAY” (JANSSEN PHARMACEUTICA NV, priority 2020, published 2023).

Columns and labels:
[1] = tested on: TNF; test: PBMC assay: LPS-stimulated TNF cytokine levels; format: cell-based; details: Homo sapiens, PBMC, human PBMCs, 30 min compound pre-incubation, 100 ng/ml LPS for 6 hrs, supernatant, MSD
Experimental: (§1) Peripheral venous blood was collected from healthy individuals and human peripheral blood mononuclear cells (PBMCs) were isolated from blood by Ficoll-Histopaque (Sigma-Aldrich, A0561) density gradient centrifugation. After isolation, PBMCs were stored in liquid nitrogen for later use. Upon thawing, PBMC cell viability was determined in growth medium (RPMI media supplemented with 10% fetal bovine serum, 1% Pen-Strep and 1% L-glutamine). Compounds were spotted in a 1:3 serial dilution in DMSO and diluted to the final concentration in 30 µl medium in 96 well plates (Falcon, 353072). PBMCs were added at a density of 7.5 × 10^4 cells per well and incubated for 30 min in a 5% CO2 incubator at 37° C. LPS stimulation was performed by addition of 100 ng/ml LPS (final concentration, Invivogen, tlrl-smlps) for 6 hrs followed by collection of cellular supernatant and the analysis of IL-1β […] and TNF cytokines levels (µM) via MSD technology according to manufacturers’ guidelines (MSD, K151A0H).
(§2) The IC50 values (for IL-1β) and EC50 values (TNF) were obtained on compounds of the invention/examples, and are depicted in the following table: […]

[2] = tested on: IL-1β; test: PBMC assay: LPS-stimulated IL-1β release; format: cell-based; details: human PBMCs, 30 min compound pre-incubation, 100 ng/ml LPS for 6 hrs, supernatant, MSD
Experimental: as §1, §2

Row | SMILES | EC50 [1] | IC50 ([2]; Homo sapiens, PBMC) | melting point | IC50 [2]
1 | CC(C)c1nn(CC(=O)Nc2ccncn2)c(=O)c2cc(F)cn12 [Compound 7F] | > 10 µM | > 10 µM | 194.5 °C | –
2 | CC(C)c1nn(CC(=O)Nc2ccncc2F)c(=O)c2cc(Cl)cn12 [Compound 9F] | > 10 µM | 3.4 µM | 211.91 °C | –
3 | CCc1nn(CC(=O)Nc2ccccc2OC)c(=O)c2cccn12 [Compound 13F] | > 10 µM | > 10 µM | 167.68 °C | –
4 | C=C(C)c1cc2c(=O)n(CC(=O)Nc3ccncn3)nc(C(C)C)n2c1 [Compound 16F, 2-(4-isopropyl-1-oxo-7-(prop-1-en-2-yl)pyrrolo[1,2-d][1,2,4]triazin-2(1H)-yl)-N-(pyrimidin-4-yl)acetamide] | > 10 µM | 3.7 µM | 185.03 °C | –
5 | CCc1cc2c(=O)n(CC(=O)Nc3ccncc3F)nc(C(C)C)n2c1 [Compound 22F] | > 10 µM | 0.67 µM | 142.64 °C | –
6 | COCCc1nn(CC(=O)Nc2ccncn2)c(=O)c2cc(C(C)C)cn12 [Compound 24F] | > 10 µM | 0.89 µM | 184.19 °C | –
7 | CCN(C)c1nn(CC(=O)Nc2ccncn2)c(=O)c2cc(C(C)C)cn12 [Compound 26F] | > 10 µM | 1.32 µM | 150.14 °C | –
8 | C=C(OC)c1nn(CC(=O)Nc2ccncn2)c(=O)c2cc(C(C)C)cn12 [Compound 27F, 2-[7-isopropyl-4-(1-methoxyvinyl)-1-oxo-pyrrolo[1,2-d][1,2,4]triazin-2-yl]-N-pyrimidin-4-yl-acetamide] | > 10 µM | 1.89 µM | 201.01 °C | –
9 | CC(C)c1nn(CC(=O)Nc2ccncn2)c(=O)c2cc(C(F)F)cn12 [Compound 29F] | > 10 µM | 1.67 µM | 216.46 °C | –
10 | CC(=O)c1nn(CC(=O)Nc2ccncn2)c(=O)c2cc(C(C)C)cn12 [Compound 35F, 2-(4-acetyl-7-isopropyl-1-oxo-pyrrolo[1,2-d][1,2,4]triazin-2-yl)-N-pyrimidin-4-yl-acetamide] | > 10 µM | > 10 µM | 284.78 °C | –
11 | CC(C)c1cc2c(=O)n(CC(=O)Nc3ccncn3)nc(C(C)O)n2c1 (stereo not drawn) [Compound 36F, 2-[4-(1-hydroxyethyl)-7-isopropyl-1-oxo-pyrrolo[1,2-d] [1,2,4]triazin-2-yl]-N-pyrimidin-4-yl-acetamide] | > 10 µM | 5.05 µM | 247.56 °C | –
12 | CC(C)c1nn(CC(=O)Nc2ccncn2)c(=O)c2cc(-c3ccccc3)cn12 [Compound 47F] | > 10 µM | > 10 µM | 209.7 °C | –
13 | CC(C)c1nn(CC(=O)NC2CCOCC2)c(=O)c2cc(-c3ccccc3)cn12 [Compound 48F] | > 10 µM | > 10 µM | 217.95 °C | –
14 | CC(C)c1nn(CC(=O)Nc2ccncn2)c(=O)c2cc(C3CC3)cn12 [Compound 50F] | > 10 µM | ~0.38 µM | 182.51 °C | –
15 | CC(C)c1cc2c(=O)n(CC(=O)NC3CCOCC3)nc(C(C)C)n2c1 [Compound 51F] | > 10 µM | ~1.77 µM | 181.03 °C | –
16 | CC(C)c1cc2c(=O)n(CC(=O)Nc3ccncn3)nc(N(C)C)n2c1 [Compound 55F] | > 10 µM | 0.36 µM | 166.33 °C | –
17 | CCc1cc2c(=O)n(CC(=O)N[C@H]3C[C@@](C)(O)C3)nc(N(C)C)n2c1 [Compound 58F] | – | 0.37 µM | 171.4 °C | –
18 | CCCc1cc2c(=O)n(CC(=O)Nc3ccncn3)nc(C(C)C)n2c1 [Compound 59F] | > 10 µM | 0.47 µM | 149.7 °C | –
19 | CCCCc1nn(CC(=O)Nc2ccncn2)c(=O)c2cc(C(C)C)cn12 [Compound 61F] | > 10 µM | 1.01 µM | 166.41 °C | –
20 | COCc1nn(CC(=O)Nc2ccncn2)c(=O)c2cc(C(C)C)cn12 [Compound 63F] | > 10 µM | 1.37 µM | 201.37 °C | –

Row | SMILES | EC50 [1] | IC50 ([2]; Homo sapiens, PBMC) | melting point | IC50 [2]
21 | C/C(=N/O)c1nn(CC(=O)N[C@H]2C[C@@](C)(O)C2)c(=O)c2cc(C(C)C)cn12 [Compound 64F] | > 10 µM | 0.32 µM | 224.87 °C | –
22 | CC(=O)NC(C)c1nn(CC(=O)Nc2ccncn2)c(=O)c2cc(C(C)C)cn12 (stereo not drawn) [Compound 65F] | > 10 µM | 7.08 µM | 279.37 °C | 6.9 µM
23 | CC(C)c1cc2c(=O)n(CC(=O)N[C@H]3C[C@@](C)(O)C3)nc(C(C)C)n2c1 [Compound 68F] | > 10 µM | 0.16 µM | 196.59 °C | –
24 | CCc1cc2c(=O)n(CC(=O)Nc3ccncn3)nc(N(C)C)n2c1 [Compound 73F, 2-(4-(dimethylamino)-7-ethyl-1-oxopyrrolo[1,2-d][1,2,4]triazin-2(1H)-yl)-N-(pyrimidin-4-yl)acetamide] | > 10 µM | 0.35 µM | 178.1 °C | –
25 | CCc1cc2c(=O)n(CC(=O)Nc3ccncn3)nc(N(C)CC)n2c1 [Compound 74F] | > 10 µM | 1.4 µM | 156.3 °C | –
26 | CC(C)c1nn(CC(=O)Nc2ccncn2)c(=O)c2cc(CC3CCCOC3)cn12 (stereo not drawn) [Compound 80F, 2-(4-isopropyl-1-oxo-7-((tetrahydro-2H-pyran-3-yl)methyl)pyrrolo[1,2-d][1,2,4]triazin-2(1H)-yl)-N-(pyrimidin-4-yl)acetamide] | > 10 µM | > 10 µM | – | –
27 | CC(C)c1nn(CC(=O)Nc2ccncn2)c(=O)c2cc(CC3CCNCC3)cn12 [Compound 82F, 2-(4-isopropyl-1-oxo-7-(piperidin-4-ylmethyl)pyrrolo[1,2-d][1,2,4]triazin-2(1H)-yl)-N-(pyrimidin-4-yl)acetamide] | > 10 µM | > 10 µM | – | –
28 | CC(C)c1nn(CC(=O)Nc2ccncn2)c(=O)c2cc(C3CNC3)cn12 [Compound 83F, 2-(7-(azetidin-3-yl)-4-isopropyl-1-oxopyrrolo[1,2-d][1,2,4]triazin-2(1H)-yl)-N-(pyrimidin-4-yl)acetamide] | > 10 µM | > 10 µM | – | –
29 | CC(C)c1nn(CC(=O)Nc2ccncn2)c(=O)c2cc(C3CCNCC3)cn12 [Compound 84F, 2-(4-isopropyl-1-oxo-7-(piperidin-4-yl)pyrrolo[1,2-d][1,2,4]triazin-2(1H)-yl)-N-(pyrimidin-4-yl)acetamide] | > 10 µM | > 10 µM | – | –
30 | CC(=O)c1cc2c(=O)n(CC(=O)Nc3ccncn3)nc(C(C)C)n2c1 [Compound 85F, 2-(7-acetyl-4-isopropyl-1-oxopyrrolo[1,2-d][1,2,4]triazin-2(1H)-yl)-N-(pyrimidin-4-yl)acetamide] | > 10 µM | > 10 µM | 262.3 °C | –
31 | CC(C)c1nn(CC(=O)Nc2ccncn2)c(=O)c2cc(C(C)(C)O)cn12 [Compound 86F, 2-(7-(2-hydroxypropan-2-yl)-4-isopropyl-1-oxopyrrolo[1,2-d][1,2,4]triazin-2(1H)-yl)-N-(pyrimidin-4-yl)acetamide] | > 10 µM | > 10 µM | – | –
32 | CC(C)c1nn(CC(=O)Nc2ccncn2)c(=O)c2cc(C(C)(C)F)cn12 [Compound 87F, 2-(7-(2-fluoropropan-2-yl)-4-isopropyl-1-oxopyrrolo[1,2-d][1,2,4]triazin-2(1H)-yl)-N-(pyrimidin-4-yl)acetamide] | > 10 µM | 8.26 µM | – | –
33 | COC(C)c1cc2c(=O)n(CC(=O)Nc3ccncn3)nc(C(C)C)n2c1 (stereo not drawn) [Compound 88F] | > 10 µM | 7.08 µM | – | 9.06 µM
34 | CC(C)c1nn(CC(=O)Nc2ccncn2)c(=O)c2cc(-c3cnn(C)c3)cn12 [Compound 89F, 2-(4-isopropyl-7-(1-methyl-1H-pyrazol-4-yl)-1-oxopyrrolo[1,2-d][1,2,4]triazin-2(1H)-yl)-N-(pyrimidin-4-yl)acetamide] | > 10 µM | > 10 µM | – | –
35 | CC(C)c1nn(CC(=O)Nc2ccncn2)c(=O)c2cc(-c3ccn(C)n3)cn12 [Compound 90F] | > 10 µM | > 10 µM | – | –
36 | CC(C)c1nn(CC(=O)Nc2ccncn2)c(=O)c2cc(-c3cn[nH]c3)cn12 [Compound 91F] | > 10 µM | > 10 µM | – | –
37 | CC(C)c1nn(CC(=O)Nc2ccncn2)c(=O)c2cc(-c3cc[nH]n3)cn12 [Compound 92F] | > 10 µM | > 10 µM | – | –
38 | CC(C)c1nn(CC(=O)Nc2ccncn2)c(=O)c2cc(-c3cn(C)cn3)cn12 [Compound 93F, 2-(4-isopropyl-7-(1-methyl-1H-imidazol-4-yl)-1-oxopyrrolo[1,2-d][1,2,4]triazin-2(1H)-yl)-N-(pyrimidin-4-yl)acetamide] | > 10 µM | > 10 µM | – | –
39 | CC(C)c1nn(CC(=O)Nc2ccncn2)c(=O)c2cc(-c3c[nH]cn3)cn12 [Compound 94F, 2-(7-(1H-imidazol-4-yl)-4-isopropyl-1-oxopyrrolo[1,2-d][1,2,4]triazin-2(1H)-yl)-N-(pyrimidin-4-yl)acetamide] | > 10 µM | > 10 µM | – | –
